Results: ChEMBL document CHEMBL1127448, “Synthesis, ligand binding, and QSAR (CoMFA and classical) study of 3 beta-(3'-substituted phenyl)-, 3 beta-(4'-substituted phenyl)-, and 3 beta-(3',4'-disubstituted phenyl)tropane-2 beta-carboxylic acid methyl esters” (J Med Chem, 1994)

Each molecule was assayed against Sodium-dependent dopamine transporter (Rattus norvegicus, UniProt P23977) (assay: Concentration required to inhibit 50% of radioligand binding ([3H]WIN-35428) to the dopamine (DA) transporter in rat).
Chain of Sodium-dependent dopamine transporter (P23977 whole entry): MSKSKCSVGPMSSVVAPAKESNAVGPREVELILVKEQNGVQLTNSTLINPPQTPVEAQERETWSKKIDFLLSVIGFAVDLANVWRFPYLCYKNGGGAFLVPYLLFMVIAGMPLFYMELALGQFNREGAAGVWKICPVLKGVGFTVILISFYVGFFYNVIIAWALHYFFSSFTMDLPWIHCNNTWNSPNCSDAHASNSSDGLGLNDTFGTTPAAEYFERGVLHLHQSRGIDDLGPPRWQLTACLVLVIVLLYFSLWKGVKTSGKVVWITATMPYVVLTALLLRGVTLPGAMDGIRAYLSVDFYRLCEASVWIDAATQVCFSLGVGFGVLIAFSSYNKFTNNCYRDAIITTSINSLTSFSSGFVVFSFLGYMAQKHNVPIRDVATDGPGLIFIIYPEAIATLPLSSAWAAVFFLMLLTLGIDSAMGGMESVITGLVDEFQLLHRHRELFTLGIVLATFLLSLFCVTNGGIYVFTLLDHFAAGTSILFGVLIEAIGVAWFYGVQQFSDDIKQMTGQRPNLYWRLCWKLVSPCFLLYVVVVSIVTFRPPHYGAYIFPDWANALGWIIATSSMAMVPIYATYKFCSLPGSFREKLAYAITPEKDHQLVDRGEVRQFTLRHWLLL

Q: Which IC50 does the source give for CCC(=O)Nc1ccc([C@H]2C[C@H]3CCC([C@H]2C(=O)OC)N3C)cc1 here?
A: 121 nM

Q: With COC(=O)[C@@H]1C2CC[C@H](C[C@@H]1c1ccc(N)cc1)N2C as the molecule, how does the IC50 read?
A: 9.84 nM

Q: How did the IC50 turn out when COC(=O)C1C2CC[C@H](C[C@@H]1c1ccc(O)cc1)N2C (some centres not stated) was run?
A: 12.1 nM

Q: COC(=O)C1C2CC[C@H](C[C@@H]1c1ccc(N)c(Br)c1)N2C (some centres not stated) was tested. Which IC50 did it give?
A: 3.91 nM

Q: Which IC50 does the source give for COC(=O)C1C2CC[C@H](C[C@@H]1c1cccc(Cl)c1)N2C (some centres not stated) here?
A: 6.27 nM

Q: How did the IC50 turn out when COC(=O)C1C2CC[C@H](C[C@@H]1c1ccc(N)c(I)c1)N2C (some centres not stated) was run?
A: 1.35 nM

Q: Which IC50 does the source give for COC(=O)C1C2CC[C@H](C[C@@H]1c1cccc(I)c1)N2C (some centres not stated) here?
A: 26.1 nM

Q: For COC(=O)C1C2CC[C@H](C[C@@H]1c1ccc(F)c(C)c1)N2C (stereo in doubt; 2x), which IC50 is on record?
A: 2.95 nM

Q: With COC(=O)C1C2CC[C@H](C[C@H]1c1ccc(Cl)c(Cl)c1)N2C (some centres not stated) as the molecule, how does the IC50 read?
A: 0.79 nM

Q: With COC(=O)C1C2CC[C@@H](C[C@@H]1c1ccc([N+](=O)[O-])cc1)N2C (some centres not stated) as the molecule, how does the IC50 read?
A: 13.1 nM

Q: COC(=O)C1C2CC[C@H](C[C@@H]1c1cccc(F)c1)N2C (some centres not stated) was tested. Which IC50 did it give?
A: 16.4 nM

Q: How did the IC50 turn out when COC(=O)C1C2CC[C@H](C[C@H]1c1ccc(Br)cc1)N2C (some centres not stated) was run?
A: 1.69 nM
